Test results reported in ChEMBL document CHEMBL1201862, “PubChem BioAssay data set” (2004).
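Step 1: Grow cells in 96-well plates. Step 2: Expose to compound for 48 hours at 5 concentrations. Step 3: Interpolate endpoints linearly; if unreached, use highest concentration. The concentration for 50% growth inhibition is given as GI50.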 Activity calls are given as the source filed them. No stated cut-off is given here; in the data, active = GI50 up to about 1.1 µM and inactive = higher.

Key:
Assay in all cases: NCI tumour cell line growth inhibition, 48 h
[1] = system: MOLT-4
[2] = system: MDA-MB-435
[3] = system: HCT-15
[4] = system: OVCAR-4
[5] = system: A498
[6] = system: OVCAR-8
[7] = system: U-251
[8] = system: HCT-116
[9] = system: HT-29
[10] = system: KM12
[11] = system: SF-295
[12] = system: HL-60
[13] = system: K562
[14] = system: HOP-92
[15] = system: PC-3
[16] = system: TK-10
[17] = system: CAKI-1
[18] = system: OVCAR-5
[19] = system: SF-539
[20] = system: MCF7

| Compound | GI50 [1] | GI50 [2] | GI50 [3] | GI50 [4] | GI50 [5] | GI50 [6] | GI50 [7] | GI50 [8] | GI50 [9] | GI50 [10] | GI50 [11] | GI50 [12] | GI50 [13] | GI50 [14] | GI50 [15] | GI50 [16] | GI50 [17] | GI50 [18] | GI50 [19] | GI50 [20] |
| --- | --- | --- | --- | --- | --- | --- | --- | --- | --- | --- | --- | --- | --- | --- | --- | --- | --- | --- | --- | --- |
| Cc1cc(O)nc(NN2C(Cl)C(=O)C2c2ccc(O)cc2)n1 (stereo not given) | 5.33 µM (inactive) | 8.47 µM (inactive) | 4.31 µM | 6.95 µM (inactive) | 9.75 µM (inactive) | 12.6 µM (inactive) | 5.4 µM (inactive) | 4.81 µM (inactive) | 6.65 µM (inactive) | 8.63 µM (inactive) | 9.48 µM (inactive) | 2.79 µM (inactive) | 2.37 µM (inactive) | 14.9 µM (inactive) | 13.2 µM (inactive) | 14.9 µM (inactive) | 7.13 µM (inactive) | 17.8 µM (inactive) | 8.93 µM (inactive) | 4.03 µM (inactive) |
| Cn1c(=O)cc(NCCc2ccccc2)[nH]c1=O | 35.2 µM (inactive) | 5.46 µM (inactive) | 29.3 µM | > 100 µM (inactive) | 46 µM (inactive) | 43.4 µM (inactive) | 61.1 µM (inactive) | 34.2 µM (inactive) | 25.5 µM (inactive) | 15.3 µM (inactive) | 20.9 µM (inactive) | > 10 µM (inactive) | 19.1 µM (inactive) | > 100 µM (inactive) | 13 µM (inactive) | > 100 µM (inactive) | 22.8 µM (inactive) | > 100 µM (inactive) | 39.4 µM (inactive) | 19.7 µM (inactive) |
| OC(CCN1CCN(CCOC(c2ccc(F)cc2)c2ccc(F)cc2)CC1)c1ccccc1 (stereo not given) | 12.1 µM (inactive) | 17.8 µM (inactive) | 13.6 µM | 16.1 µM (inactive) | 5.06 µM (inactive) | 12.9 µM (inactive) | 14.6 µM (inactive) | 13.4 µM (inactive) | 8.65 µM (inactive) | 18.5 µM (inactive) | 18.3 µM (inactive) | 15.9 µM (inactive) | 4.56 µM (inactive) | 10.3 µM (inactive) | 13.6 µM (inactive) | 15 µM (inactive) | 16.8 µM (inactive) | 14.5 µM (inactive) | 11.1 µM (inactive) | 16.6 µM (inactive) |
| CCOC(=O)/C=C(/C(=O)OCC)n1cc(C)c(=O)[nH]c1=O | 2.44 µM (inactive) | 3.07 µM (inactive) | 2.04 µM | 4.93 µM (inactive) | 12.9 µM (inactive) | 4.62 µM (inactive) | 6.62 µM (inactive) | 2.43 µM (inactive) | 4.92 µM (inactive) | 14.2 µM (inactive) | 17.3 µM (inactive) | 1.67 µM (inactive) | 1.9 µM (inactive) | 1.71 µM (inactive) | 8.15 µM (inactive) | 2.52 µM (inactive) | 1.15 µM (inactive) | 5.87 µM (inactive) | 13.2 µM (inactive) | 3.89 µM (inactive) |
| N#CC(Cl)CS(=O)(=O)c1ccccc1 (stereo not given) | 1.34 µM (inactive) | 17.1 µM (inactive) | 2.14 µM | 2.03 µM (inactive) | 13.6 µM (inactive) | 6.7 µM (inactive) | 19.3 µM (inactive) | 4.34 µM (inactive) | 7.66 µM (inactive) | 17.5 µM (inactive) | 18.7 µM (inactive) | 1.53 µM (inactive) | 1.97 µM (inactive) | 2.02 µM (inactive) | 17.5 µM (inactive) | 3.7 µM (inactive) | 3.06 µM (inactive) | 20.3 µM (inactive) | 14.9 µM (inactive) | 10.2 µM (inactive) |
| O=C(Nc1ccn(C2CCC(COC(c3ccccc3)(c3ccccc3)c3ccccc3)O2)c(=O)n1)c1ccccc1 (stereo not given) | 2.56 µM (inactive) | 3.42 µM (inactive) | 4.18 µM | 2.82 µM (inactive) | 5 µM (inactive) | 4.82 µM (inactive) | 4.06 µM (inactive) | 3.33 µM (inactive) | 2.4 µM (inactive) | 5.87 µM (inactive) | 3.11 µM (inactive) | 1.83 µM (inactive) | 2.86 µM (inactive) | 1.86 µM (inactive) | 1.5 µM (inactive) | 5.12 µM (inactive) | 4.51 µM (inactive) | 3.76 µM (inactive) | 3.43 µM (inactive) | 4.22 µM (inactive) |
| Cc1ccc(NC(=O)c2ccc(OP(=O)(O)Nc3ccc(C)cc3)cc2)cc1 | > 100 µM (inactive) | > 100 µM (inactive) | > 100 µM | > 100 µM (inactive) | > 100 µM (inactive) | > 100 µM (inactive) | > 100 µM (inactive) | > 100 µM (inactive) | > 100 µM (inactive) | > 100 µM (inactive) | > 100 µM (inactive) | > 100 µM (inactive) | > 100 µM (inactive) | > 100 µM (inactive) | > 100 µM (inactive) | > 100 µM (inactive) | > 100 µM (inactive) | > 100 µM (inactive) | > 100 µM (inactive) | > 100 µM (inactive) |
| CCCCCNC(=O)c1cc2cc(CCl)ccc2oc1=O | 6.68 µM (inactive) | 9.27 µM (inactive) | 1.95 µM | 7.23 µM (inactive) | 1.86 µM (inactive) | 35.7 µM (inactive) | 9.98 µM (inactive) | 3.84 µM (inactive) | 2.42 µM (inactive) | 10.2 µM (inactive) | 6.56 µM (inactive) | 1.9 µM (inactive) | 5.62 µM (inactive) | 1.95 µM (inactive) | 1.33 µM (inactive) | 1.52 µM (inactive) | 1.21 µM (inactive) | 2.88 µM (inactive) | 2.67 µM (inactive) | 5.97 µM (inactive) |
| O=[N+]([O-])C1CC/C(=N/O)c2nonc21 (stereo not given) | > 10 µM (inactive) | > 10 µM (inactive) | > 10 µM | > 10 µM (inactive) | > 10 µM (inactive) | > 10 µM (inactive) | > 10 µM (inactive) | > 10 µM (inactive) | > 10 µM (inactive) | > 10 µM (inactive) | > 10 µM (inactive) | > 10 µM (inactive) | > 10 µM (inactive) | > 10 µM (inactive) | > 10 µM (inactive) | > 10 µM (inactive) | > 10 µM (inactive) | > 10 µM (inactive) | > 10 µM (inactive) | > 10 µM (inactive) |
| NNc1nnc(CCCCCCCCc2nnc(NN)n2N)n1N | 33.2 µM (inactive) | > 100 µM (inactive) | > 100 µM | > 100 µM (inactive) | > 100 µM (inactive) | 17.1 µM (inactive) | 16.9 µM (inactive) | > 100 µM (inactive) | > 100 µM (inactive) | > 100 µM (inactive) | 76.9 µM (inactive) | 24.4 µM (inactive) | 14 µM (inactive) | 28 µM (inactive) | > 100 µM (inactive) | > 100 µM (inactive) | > 100 µM (inactive) | > 100 µM (inactive) | > 100 µM (inactive) | > 100 µM (inactive) |
| Cc1cc(C)c2c(O)cc(-c3ccc4ccccc4c3)nc2n1 | 3.66 µM (inactive) | 2.92 µM (inactive) | 6.1 µM | 14.6 µM (inactive) | 3.9 µM (inactive) | 39 µM (inactive) | 16.7 µM (inactive) | 13.8 µM (inactive) | 12.1 µM (inactive) | 6.04 µM (inactive) | 16.2 µM (inactive) | 3.04 µM (inactive) | 2.05 µM (inactive) | 11.1 µM (inactive) | 10.2 µM (inactive) | 31 µM (inactive) | 54.6 µM (inactive) | 43.8 µM (inactive) | 30.8 µM (inactive) | 15.5 µM (inactive) |
